Data on 4 molecules can be found in US9273095B2, “Antibiotic peptide and preparation method therefor and application therefor” (priority 2011, dated 2016).

One data set relates to aspergillus flavous. The data set is described as follows: microbe, parasite or virus in culture. The class given is cell-based. The following applies: for MIC: JLC 30784 aspergillus flavous, read-out: Minimal inhibitory concentration. As to the method:
(§1) • (1) Test strains: monilia albicans (candida albicans), candida glabrata, candida krusei, candida tropicalis, aspergillus fumigatus and flavous. Antimicrobial peptides PL-13 (SEQ ID NO: 1) under test are supplied by Jiangsu ProteLight Pharmaceutical & Biotechnology Co., LTD. […] Activation of bacterial strains is conducted at a humidity level of 60% and 25° C. (for aspergillus) or 37° C. (for candida). (2) 0.9% stroke-physiological saline solution comprising 0.5% Tween-80 is used to prepare bacterial suspension for experiment. Hemocytometer is utilized to adjust concentration of the bacterial suspension to 1-3×10^6 CFU/ml (0.5 McFarland units) to make stock solution in reserve at -20° C. During the sensitivity test, the RPMI-1640 liquid medium is diluted 1000 times to 1-3×10^3 CFU/ml. (3) The RPMI-1640 liquid is utilized as diluent to 10-fold dilute stock solution of peptides. […] The eleventh orifice is used as living control orifice, while the twelfth one as blank control. (4) The RPMI-1640 liquid is utilized as diluent to 10-fold dilute stock solution of FCZ and ICZ. […] Ditto for other operations.

The next data set deals with candida tropicalis. The data set is described as follows: microbe, parasite or virus in culture. The settings on record: for MIC: Candida tropicalis, read-out: Minimal inhibitory concentration. It counts as cell-based. How it is done: as §1
For another data set, the system named is candida glabrata. The data set is described as follows: microbe, parasite or virus in culture. The class given is cell-based. The following applies: for MIC: Nakaseomyces glabratus, read-out: Minimal inhibitory concentration. How it is done:
as §1

Another data set has as its system aspergillus fumigatus. The data set is described as follows: microbe, parasite or virus in culture. It counts as cell-based. The following applies: for MIC: JLC 30506 aspergillus fumigatus, read-out: Minimal inhibitory concentration. As to the method: as §1
In another data set the test system is candida albicans. The experiment in a line: microbe, parasite or virus in culture. The class given is cell-based. The settings on record: for MIC: Candida albicans, read-out: Minimal inhibitory concentration. As to the method:
as §1

The test system of another data set is candida krusei. The data set is described as follows: microbe, parasite or virus in culture. The class given is cell-based. The following applies: for MIC: Pichia kudriavzevii, read-out: Minimal inhibitory concentration. The source says: • (1) Test strains: monilia albicans (candida albicans), candida glabrata, candida krusei, candida tropicalis, aspergillus fumigatus and flavous. (2) Quality control strains: candida krusei JLC30366 (ATCC6258). Antimicrobial peptides PL-13 (SEQ ID NO: 1) under test are supplied by Jiangsu ProteLight Pharmaceutical & Biotechnology Co., LTD. […] (1) The bacterial strains which preserved on PDA slant are respectively inoculated onto PDA plate and slant medium. Activation of bacterial strains is conducted at a humidity level of 60% and 25° C. (for aspergillus) or 37° C. (for candida). (2) 0.9% stroke-physiological saline solution comprising 0.5% Tween-80 is used to prepare bacterial suspension for experiment. Hemocytometer is utilized to adjust concentration of the bacterial suspension to 1-3×10^6 CFU/ml (0.5 McFarland units) to make stock solution in reserve at -20° C. During the sensitivity test, the RPMI-1640 liquid medium is diluted 1000 times to 1-3×10^3 CFU/ml. (3) The RPMI-1640 liquid is utilized as diluent to 10-fold dilute stock solution of peptides. […] The eleventh orifice is used as living control orifice, while the twelfth one as blank control. (4) The RPMI-1640 liquid is utilized as diluent to 10-fold dilute stock solution of FCZ and ICZ. […] Ditto for other operations.

For data set [1], the system named is Staphylococcus epidermidis. The experiment in a line: microbe, parasite or virus in culture. The class given is cell-based. How it is done: (§2) The experimental strains are 37 standard strains preserved in lab and clinical isolated bacteria, including drug-resistant bacteria and quality-control bacteria selecting Staphylococcus aureus ATCC29213, Enterococcus faecalis ATCC29212, Escherichia coli ATCC25922, Pseudomonas aeruginosa ATCC27853 and klebsiella pneumoniae ATCC700603.
(§3) (1) Sensitivity test is conducted with two-fold agar dilution method and Denlay multipoint inoculator. Test bacteria are cultured with nutrient broth and brain heart infusion.
(§4) (2) The drug is double diluted into different concentration with MH broth after dissolved and then placed in the plate respectively.
(§5) (3) After dissolved, MH agar culture medium are injected into the plate with drug quantitatively and mixed to make the final concentration of drug are 0.03, 0.06, 0.125, . . . , 128 μg/ml respectively.
(§6) (4) After solidification of the culture medium in the plate, test bacteria (10^4CFU/point) are inoculated by multipoint inoculator and cultured for 18 hours at constant 35° C. Then observe the results.

For data set [2], the system named is Acinetobacter calcoaceticus. The experiment in a line: microbe, parasite or virus in culture. The class given is cell-based. How it is done:
as §2, §3, §4, §5, §6

Data set [3] deals with red cell suspension from healthy volunteers. The experiment in a line: Hemolytic activity test. The class given is cell-based, human. The settings on record: for Hemolytic activity, absorbancy (OD value) at 570 nm: 4 hours at 37° C., OD higher than 0.1 is hemolytic, n = 3. How it is done:
(1) Samples are serial diluted with sterile PBS to 1000, 500, 250, 125, 64, 32, 16, 8, 4 μg/ml in turn and spread in 96-well plates, 100 μl per orifice.
(2) We use distilled water as positive control, sterile PBS as negative control and blank orifice with 200 μl PBS solution added. Each concentration above is made in triplicate.
(3) We take 3 ml whole blood from healthy volunteers and washed it with sterile PBS three times to prepare fresh 2% concentration red cell suspension. Then we added 100 μl red cell suspension into each orifice and made them cultured for 4 hours at 37° C. in the incubator. After centrifuged by plate-swashing centrifuge, the supernatant liquid is collected and measured absorbancy (OD value) at a wavelength of 570 nm. Then we compared the hemolytic efficiency of these concentrations.
(4) According to the documents standard, OD value which is higher than 0.1 is hemolytic concentration.

The next data set has as its system Enterococcus faecium. The data set is described as follows: microbe, parasite or virus in culture. The class given is cell-based. As to the method: as §2, §3, §4, §6
The next data set concerns Bacillus dysenteriae. The experiment in a line: Therapeutic test of oral preparation on mice with systemic infection, survival time. It counts as in vivo, ICR mice. The following applies: 80 mg/kg gavage three times a day for seven days, n = 10. As to the method:
(§7) There are 30 male and 30 female ICR mice with the weight ranging from 18 g to 22 g. […] With trinitrophenal marking method, all the mice are raised with ordinary animal feeds in the ordinary animal houses and they can drink water freely. Alternating of light and dark is conducted every 12 hours.
(§8) 2. Infected Strains: Escherichia and Bacillus dysenteriae
(§9) (1) The preparation of bacterial suspension is the same as above.
(§10) (2) The Escherichia suspension cultured overnight is diluted to 1×10^7CFU/ml. The Bacillus dysenteriae suspension cultured overnight is diluted to 1×10^5CFU/ml. They are all applied in reserve.
(§11) (3) Except the blank control group, every other mouse is injected with 0.2 ml Escherichia suspension with the concentration of 1×10^7CFU/ml or 0.2 ml Bacillus dysenteriae suspension with the concentration of 1×10^5CFU/ml intraperitoneally to make model.
(§12) (4) Administration: The drugs are administered according to mice′ weight right after the model is ready. All the groups excepting the blank and the infected negative control groups are administered by gavaging with different dosage of drugs three times a day successively for seven days, and they are observed for fourteen days.
(§13) (5) Observe death of the animals and record their survival time.

The next data set concerns Escherichia. The description is as above. The following applies: 80 mg/kg gavage three times a day for seven days, n = 10. It counts as in vivo, ICR mice. How it is done:
as §7, §8, §9, §10, §11, §12, §13

The mark [4] stands for this setting: JLC 30883 aspergillus fumigatus.

Values after ≈ are worked out from the molar mass of the structure shown. Like-named read-outs stand apart in the source and are kept apart here. Marks after values point to notes of the source that are not given here. Non-standard residues stand in square brackets, D forms with d. Residues, ends and D or L forms follow the SMILES beside them. Bounds are passed on as bounds.

Consider `OC(Cn1cncn1)(Cn1cncn1)c1ccc(F)cc1F` [FCZ, Fluconazol, reference compound], for which the MIC in the data set with aspergillus flavous was over 64 µg/mL; with candida tropicalis (JLC 31379 candida tropicalis), 0.5 µg/mL (≈ 1.63 µM); with candida tropicalis (JLC 31384 candida tropicalis) it was 0.25 µg/mL (≈ 0.816 µM); in the data set on candida glabrata (JLC 30367 candida glabrata), 2 µg/mL (≈ 6.53 µM); in the data set with candida glabrata (JLC 31512 candida glabrata), 1 µg/mL (≈ 3.27 µM); in the data set with aspergillus fumigatus it was over 64 µg/mL. Also, the MIC in the data set on candida albicans (JLC 33659 candida albicans) was found to be 0.25 µg/mL (≈ 0.816 µM); with candida albicans (JLC 33660 candida albicans), 0.25 µg/mL (≈ 0.816 µM); in the data set with candida krusei (JLC 30366 candida krusei), 16 µg/mL (≈ 52.2 µM); with candida krusei (JLC 30383 candida krusei) it was 8 µg/mL (≈ 26.1 µM). Further, the Minimal inhibitory concentration in the data set on aspergillus flavous (JLC 40437 aspergillus flavous) and in the data set with aspergillus fumigatus (setting [4]) was over 64 µg/mL throughout.
Regarding `CCC(C)n1ncn(-c2ccc(N3CCN(c4ccc(OCC5COC(Cn6cncn6)(c6ccc(Cl)cc6Cl)O5)cc4)CC3)cc2)c1=O` (stereo not drawn) [ICZ, Itraconazole, reference compound], the MIC in the data set with aspergillus flavous came to 0.125 µg/mL (≈ 0.177 µM); in the data set with candida tropicalis (JLC 31379 candida tropicalis), 0.03 µg/mL (≈ 0.0425 µM); in the data set on candida tropicalis (JLC 31384 candida tropicalis), 0.03 µg/mL (≈ 0.0425 µM); in the data set with candida glabrata (JLC 30367 candida glabrata), 0.0625 µg/mL (≈ 0.0886 µM); in the data set with candida glabrata (JLC 31512 candida glabrata), 0.03 µg/mL (≈ 0.0425 µM); in the data set on aspergillus fumigatus it was 0.125 µg/mL (≈ 0.177 µM). The MIC was determined as 0.03 µg/mL (≈ 0.0425 µM) in the data set with candida albicans (JLC 33659 candida albicans), 0.0625 µg/mL (≈ 0.0886 µM) in the data set with candida albicans (JLC 33660 candida albicans), 0.25 µg/mL (≈ 0.354 µM) in the data set on candida krusei (JLC 30366 candida krusei) and 0.25 µg/mL (≈ 0.354 µM) in the data set with candida krusei (JLC 30383 candida krusei). Moreover, the Minimal inhibitory concentration with aspergillus flavous (JLC 40437 aspergillus flavous) and in the data set with aspergillus fumigatus (setting [4]) was 0.125 µg/mL (≈ 0.177 µM) throughout.
Turning to `CC(=O)N[C@H](Cc1ccccc1)C(=O)N[C@H](CCCCN)C(=O)N[C@H](CCCCN)C(=O)N[C@H](CC(C)C)C(=O)N[C@H](CCCCN)C(=O)N[C@H](CCCCN)C(=O)N[C@H](CCCCN)C(=O)N[C@H](Cc1ccccc1)C(=O)N[C@H](CO)C(=O)N[C@H](CCCCN)C(=O)N[C@H](CC(C)C)C(=O)N[C@H](Cc1c[nH]c2ccccc12)C(=O)N[C@H](CC(N)=O)C(=O)N[C@H](Cc1c[nH]c2ccccc12)C(=O)N[C@H](CCCCN)C(N)=O` [PL-34] (Ac-[dF][dK][dK][dL][dK][dK][dK][dF][dS][dK][dL][dW][dN][dW][dK]-NH2), the Minimal inhibitory concentration is over 64 µg/mL with aspergillus flavous; 4 µg/mL (≈ 1.95 µM) in the data set on candida tropicalis; 32 µg/mL (≈ 15.6 µM) with candida glabrata; over 64 µg/mL in the data set on aspergillus fumigatus; 16 µg/mL (≈ 7.8 µM) with candida albicans; 8 µg/mL (≈ 3.9 µM) in the data set on candida krusei. Moreover, the MIC (in data set [1] (08-17 (MSSE) Meticillin susceptible staphylococcus epidermidis); in data set [1] ((MRSE) Methicillin-resistant Staphylococcus epidermidis ATCC12228); in data set [2]; in the data set with Enterococcus faecium) was 1.3 µM (≈ 2.67 µg/mL) in each case. The “Hemolytic activity, absorbancy (OD value) at 570 nm” value in data set [3] (peptide 7.8125 μg/ml) stood at 0.032; in data set [3] (peptide 15.625 μg/ml), 0.041; in data set [3] (peptide 31.25 μg/ml) it was 0.054; in [3] (peptide 62.5 μg/ml), 0.061; in [3] (peptide 125 μg/ml) it was 0.073; in data set [3] (peptide 250 μg/ml) it was 0.087. The “Hemolytic activity, absorbancy (OD value) at 570 nm” value is on record as 0.135 in [3] (peptide 500 μg/ml) and 0.317 in [3] (peptide 1000 μg/ml). The “hemolytic toxicity (in words)” value in [3] (summary of Table 9) is reported as “little hemolytic toxicity”.
`CCS(=O)(=O)CCn1c([N+](=O)[O-])cnc1C` [Tinidazole]: the values for the Mean survival Time in the data set with Bacillus dysenteriae (observed fourteen days) and in the data set on Escherichia (observed fourteen days) were 7.0* day and 7.5* day, respectively. In addition, the “Mortality of mice in different days after infection” value with Bacillus dysenteriae (day 4) is recorded as 2; in the data set on Bacillus dysenteriae (day 5) it was 1; in the data set on Bacillus dysenteriae (day 6), 2; in the data set on Bacillus dysenteriae (day 7), 2; with Bacillus dysenteriae (day 8), 1; with Bacillus dysenteriae (day 9), 1. The “Mortality of mice in different days after infection” value in the data set on Escherichia (day 4) was 1; in the data set on Escherichia (day 5), 2; with Escherichia (day 6) it was 2; in the data set on Escherichia (day 7), 1; with Escherichia (day 8) it was 1; in the data set with Escherichia (day 9), 2.
